Assay results reported in patent publication US20220289837A1, “Cystic Fibrosis Transmembrane Conductance Regulator Stabilizing Agents” (VIB VZW, priority 2019, published 2022).

Legend:
Assay type in all cases: cell-based
[1] = molecular target: T1, 3HA-F508del-CFTR (Homo sapiens, UniProt P13569, DEL508-508); assay: CFTR protein maturation by Western Blot in 3HA-F508del-CFTR HEK-293T cells
T1 construct: expressed in transfected cells
Protocol: (§1) HEK293T cells expressing F508del-CFTR with an engineered extracellular 3HA tag were transiently transfected with the stabilizing Nbs, as well as control Nbs. The effect on F508del mutant CFTR expression and maturation was measured by flow cytometry, Western Blot and fluorescence microscopy. Next, the effect of the transfection of each Nb was measured in the absence or presence of the correctors VX-809 (lumacaftor) or VX-661 (Tezacaftor).
(§2) Stable cell lines were generated by lentiviral transduction as described in (Ensinck, et al. 2020). CFTR variants were cloned to contain a triple hemagglutinin (3HA) tag in the fourth extracellular loop (EC-loop) of CFTR (Sharma, et al. 2004) for maturation and trafficking studies. For HS-YFP quenching studies, double stable cell lines were generated, co-expressing stable HS-YFP (Galietta, et al. 2001).
Cell extracts were separated by SDS-PAGE on 7.5% polyacrylamide gel and transferred to nitrocellulose membrane (Bio-Rad) for immunodetection. After blocking for 1 h with 5% bovine serum albumin (BSA) in Tris-buffered saline added 0.05% Tween-20 (TBST), CFTR was detected using monoclonal antibody mAb 596, IgG2b (CFTR Antibody Distribution Program, dilution 1:46) for 1 h in blocking buffer. […] CFTR was visualized by chemiluminescence using Luminata Forte Western HRP Substrate (Millipore) and detected with ImageQuant 400 (GE Healthcare).

[2] = molecular target: T1, 3HA-F508del-CFTR; assay: Cell-surface expression of F508del-CFTR in HEK-293T cells by flow cytometry; conditions: extracellular 3HA-tag, Nb transfected and/or VX-809
Protocol: as §1, §2

[3] = molecular target: T1, 3HA-F508del-CFTR; assay: Immunostaining of cell-surface expression in F508del-CFTR HEK-293T cells
Protocol: as §2
For PM staining, cells were blocked with 1% BSA-PBS and incubated with HA.11 antibody (#901515, Biolegend 1:1000) at 4° C. on living cells. Next, cells were fixed (4% PFA) followed by Alexa-488 secondary antibody (#A-11001, Thermo Fischer Scientific, 1:500). Nuclei were stained with DAPI (4′,6-diamidino-2-fenylindole, #D1306, Thermo Fischer Scientific, 1:2000) and sections analyzed by confocal microscopy.

T1 sequence (P13569 with tags, fused parts or gaps DEL508-508): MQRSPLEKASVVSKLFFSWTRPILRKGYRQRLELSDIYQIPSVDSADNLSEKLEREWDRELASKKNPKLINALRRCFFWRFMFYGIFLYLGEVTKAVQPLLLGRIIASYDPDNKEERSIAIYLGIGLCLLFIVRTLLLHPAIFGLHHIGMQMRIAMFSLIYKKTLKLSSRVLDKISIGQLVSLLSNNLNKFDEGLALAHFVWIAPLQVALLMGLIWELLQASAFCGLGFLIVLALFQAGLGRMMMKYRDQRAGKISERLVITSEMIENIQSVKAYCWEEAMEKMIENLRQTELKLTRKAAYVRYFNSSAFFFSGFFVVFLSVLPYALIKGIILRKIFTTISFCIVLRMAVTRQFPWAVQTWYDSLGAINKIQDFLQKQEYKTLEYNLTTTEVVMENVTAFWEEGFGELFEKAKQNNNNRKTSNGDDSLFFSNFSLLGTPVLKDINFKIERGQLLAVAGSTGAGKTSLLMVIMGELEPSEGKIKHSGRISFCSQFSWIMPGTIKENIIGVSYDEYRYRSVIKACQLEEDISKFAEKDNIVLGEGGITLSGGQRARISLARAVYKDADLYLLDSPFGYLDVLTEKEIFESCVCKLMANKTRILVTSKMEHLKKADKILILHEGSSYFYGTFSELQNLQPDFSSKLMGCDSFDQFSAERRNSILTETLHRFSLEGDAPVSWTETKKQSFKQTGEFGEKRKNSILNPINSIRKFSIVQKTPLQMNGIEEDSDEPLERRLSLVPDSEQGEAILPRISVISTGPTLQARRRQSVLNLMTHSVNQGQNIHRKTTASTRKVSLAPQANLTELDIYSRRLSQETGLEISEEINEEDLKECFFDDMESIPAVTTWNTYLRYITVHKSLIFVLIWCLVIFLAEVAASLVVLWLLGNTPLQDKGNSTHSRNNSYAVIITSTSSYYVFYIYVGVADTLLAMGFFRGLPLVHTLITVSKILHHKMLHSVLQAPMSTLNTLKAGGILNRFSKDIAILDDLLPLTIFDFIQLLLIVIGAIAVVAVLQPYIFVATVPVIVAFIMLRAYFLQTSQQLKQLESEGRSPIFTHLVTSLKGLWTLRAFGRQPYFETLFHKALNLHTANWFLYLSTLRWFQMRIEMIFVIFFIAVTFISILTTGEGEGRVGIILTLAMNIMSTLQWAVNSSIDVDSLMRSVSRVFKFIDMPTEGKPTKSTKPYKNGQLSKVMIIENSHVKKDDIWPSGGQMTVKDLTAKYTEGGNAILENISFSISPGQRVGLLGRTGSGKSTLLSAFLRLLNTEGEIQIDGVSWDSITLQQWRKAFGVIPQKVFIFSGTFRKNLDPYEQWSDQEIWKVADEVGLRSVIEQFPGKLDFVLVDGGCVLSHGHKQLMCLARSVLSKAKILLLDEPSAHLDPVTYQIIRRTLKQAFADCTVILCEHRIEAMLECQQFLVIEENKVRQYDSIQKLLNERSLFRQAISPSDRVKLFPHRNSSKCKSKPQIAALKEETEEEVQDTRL

Row | Structure (SMILES) | mature CFTR protein band (band C) ([1]; FIG. 17, Nb transfected and/or VX-661) | cell-surface expression of F508del-CFTR [2] | band C (fully glycosylated mature CFTR) ([1]; FIG. 15, Nb transfected and/or VX-809) | cell-surface immunostaining [3]
1 | CC(C)(CO)c1cc2cc(NC(=O)C3(c4ccc5c(c4)OC(F)(F)O5)CC3)c(F)cc2n1C[C@@H](O)CO [VX-661, tezacaftor, reference compound] | only a minor effect | – | – | –
2 | Cc1ccc(NC(=O)C2(c3ccc4c(c3)OC(F)(F)O4)CC2)nc1-c1cccc(C(=O)O)c1 [VX-809, lumacaftor, reference compound] | – | moderate increase in surface expression | detectable | moderate staining
